Test results reported in PMC8279416, “Structural Fine-Tuning of Desmuramylpeptide NOD2 Agonists Defines Their In Vivo Adjuvant Activity” (Journal of Medicinal Chemistry, 2021).

Experiments:
human PBMCs = experiment: Cytokine release from peripheral blood mononuclear cells (cytometric bead array); format: cell-based; details: 2 μM, 18 h, without LPS
Description: The immunostimulatory effects of the selected desmuramylpeptides were evaluated using human primary peripheral blood mononuclear cells (PBMCs). This heterogeneous mixture of immune cells allowed the study of the effects of these NOD2 agonists in a physiologically relevant system, where other NOD2-interacting and downstream signaling proteins were present. The effects of desmuramylpeptides were first determined for the secreted cytokine profile using a cytometric bead array cytokine kit. Moreover, considering that activation of NOD2 is also an important amplification signal for Toll-like receptor (TLR)-induced inflammatory responses,[79]−[81] we also examined the effects on cytokine secretion of the combination of desmuramylpeptides with LPS, a well-known TLR4 agonist.
In line with previous studies, the effects of MDP and the desmuramylpeptides were most pronounced for the induction of the chemokine IL-8.[82]
Peripheral blood mononuclear cells were seeded (1 × 10^6 cells/mL) in 48-well plates in 500 μL of growth medium and treated with the compounds (2 μM) or with the corresponding vehicle (0.1% DMSO) in the absence and presence of LPS (10 ng/mL). Cell-free supernatants were collected after 18 h of incubation (37 °C, 5% CO2) and stored at −80 °C until tested. Cytokine production was determined with the BD Cytometric Bead Array Human Inflammatory Cytokines Kit (contents: IL-8, IL-1β, IL-6, IL-10, TNF, IL-12p70; BD Bioscience) on an Attune NxT flow cytometer (Thermo Fisher Scientific, Waltham, MA, U.S.A.). Standard curves were generated using recombinant cytokines contained in the kit. The data were analyzed using the FlowJo (Tree Star, Inc., Ashland, OR, U.S.A.) and Prism (GraphPad, San Diego, CA, U.S.A.) software. The experiments were repeated as four independent biological replicates. Statistical significance was determined by repeated measures one-way ANOVA followed with Dunnett’s multiple comparisons test.

NIH/OlaHsd mice = experiment: In vivo ovalbumin-specific antibody response, first experiment (neutral liposomes); set-up: species or system mouse; details: for Log10 (anti-OVA IgG1/anti-OVA IgG2a): first in vivo experiment, one week after the booster dose, mean ± SEM of 5 mice; for Boost in the elicited ovalbumin-specific IgG response: vs liposomes without adjuvant
Description: To determine whether enhanced antigen presentation in vitro is correlated to in vivo adjuvant activities, an immunization study was performed in a murine model of adjuvanticity. Specifically, the selected desmuramylpeptides were investigated for induction of systemic immune responses against the model antigen ovalbumin. Seven groups of NIH/OlaHsd mice were immunized with ovalbumin-containing neutral liposomes, either alone or with additional adjuvants of MDP or the desmuramylpeptides 1, 68, 74, 75, or 81. After immunization and one booster dose, the mice sera were collected and assayed for ovalbumin-specific IgG antibodies (Figure 10).
Multilamellar liposomes were prepared by the modified thin lipid film method as described previously.[130],[131] For the preparation of neutral liposomes, a 7:5 molar ratio of egg-phosphatidylcholine and cholesterol was used. For the preparation of negatively charged liposomes, a 7:5:1 molar ratio of egg-phosphatidylcholine, cholesterol, and dicetylphosphate was used, while a 7:5:0.5 molar ratio of egg-phosphatidylcholine, cholesterol, and Man-PEG-Pam was used in the preparation of mannosylated liposomes. Lipids (total lipid concentration, 4 mg/mL) were dissolved in chloroform/methanol (2:1). A methanol or chloroform/methanol solution of MDP or the desmuramylpeptides was added to the lipid solution for a final concentration of 2 mM and 1.5 mM for the first (Figure 10) and second (Figure 11) experiments, respectively. After rotary evaporation of the solvent, the remaining lipid film was dried in vacuum for 1 h and then dispersed by gentle handshaking in an ovalbumin solution in saline (0.0667 and 0.1 mg/mL for the first and second experiments, respectively). This was then left overnight at 4 °C to swell and stabilize. Liposome size was reduced by sonification. Nonentrapped material was not separated from liposomes, and the complete liposome suspension was used for immunizations.
For the first experiment (Figure 10), sex-matched NIH/OlaHsd mice (five per group) were immunized subcutaneously in the tail base and boosted one time after 21 days. The injection volume in all experimental groups was 0.15 mL per mouse, which corresponds to 10 μg of OVA, […], and 0.30 μmol of MDP and desmuramylpeptides. For the second experiment (Figure 11), sex-matched NIH/OlaHsd mice (five per group) were immunized and boosted two times subcutaneously into the tail base at 21-day intervals. The injection volume in all experimental groups was 0.1 mL per mouse, which corresponds to 10 μg of OVA, 400 μg of lipids, and 0.15 μmol of MDP and 75. The mice were anesthetized with ip application of ketamine/xylazine (25 mg/kg each) prior to blood collection from the axillary plexus on the seventh day after the last booster dose. Individual serum from each animal was decomplemented at 56 °C for 30 min and then stored at −20 °C until tested.
ELISA assays were performed as detailed previously.[46] Briefly, high-binding ELISA plates (Costar, U.S.A.) were coated with a 15 μg/mL solution of ovalbumin in carbonate buffer, pH 9.6, and incubated overnight at room temperature. Nonspecific antibody binding was blocked with 0.5% w/v bovine serum albumin in PBS-T (0.05% (v/v) Tween 20 in phosphate-buffered saline) for 2 h at 37 °C. After washing, five serial dilutions of mice sera and standard preparations were added in duplicate. Plates were incubated overnight at room temperature, washed, and analyzed for ovalbumin-specific IgG levels by incubation with HRP-conjugated goat anti-mouse IgG (2 h at 37 °C) and then, after washing, with 0.6 mg/mL o-phenylenediaminedihydrochloride solution in citrate-phosphate buffer, pH 5.0, with 0.5 μL of 30% H2O2 per milliliter for 30 min at room temperature in the dark. The enzymatic reaction was stopped with 12.5% H2SO4, and absorbance at 492 nm was measured using a microplate reader (Thermo Fisher Scientific, Waltham, MA, U.S.A.). […]

[1] = neutral liposomes, 0.30 μmol adjuvant per dose, 1 week after booster
[2] = neutral liposomes, 0.30 μmol adjuvant per dose, s.c., 1 week after booster

CCCCCCCCCCCCCCCCCC(=O)Oc1ccc(/C=C/C(=O)NCC(=O)N[C@H](C(=O)N[C@H](CCC(=O)OCC)C(=O)OCC)C(C)C)cc1OC [Compound 75, Diethyl ((E)-3-(3-Methoxy-4-(stearoyloxy)phenyl)acryloyl)glycyl-L-valyl-D-glutamate]
Induction of cytokines IL-1β, IL-6, IL-8 and TNF-α, compound alone (human PBMCs): induced lower responses
Log10 (anti-OVA IgG1/anti-OVA IgG2a) (NIH/OlaHsd mice): 2.07 ± 0.17
Ovalbumin-specific IgG1 response (in words) (NIH/OlaHsd mice; [1]): significantly enhanced
Ovalbumin-specific IgG2a response (in words) (NIH/OlaHsd mice; [1]): highest levels of IgG2a antibodies
Boost in the elicited ovalbumin-specific IgG response (NIH/OlaHsd mice; [2]): 5 fold

CCCCCCCCCCCCCCCCCC(=O)Oc1ccc(/C=C/C(=O)NCC(=O)N[C@H](C(=O)N[C@H](CCC(=O)OCC)C(=O)OCC)[C@@H](C)O)cc1OC [Compound 81, Diethyl ((E)-3-(3-Methoxy-4-(stearoyloxy)phenyl)acryloyl)glycyl-L-threonyl-D-glutamate]
Induction of cytokines IL-1β, IL-6, IL-8 and TNF-α, compound alone (human PBMCs): induced lower responses
Log10 (anti-OVA IgG1/anti-OVA IgG2a) (NIH/OlaHsd mice): 2.18 ± 0.24
Ovalbumin-specific IgG1 response (in words) (NIH/OlaHsd mice; [1]): largely IgG1-based response
Boost in the elicited ovalbumin-specific IgG response (NIH/OlaHsd mice; [2]): 3 fold

COc1cc(/C=C/C(=O)NCC(=O)N[C@H](C(=O)N[C@H](CCC(=O)OC2CCCC2)C(=O)OC2CCCC2)C(C)C)ccc1O [Compound 68, Dicyclopentyl ((E)-3-(4-Hydroxy-3-methoxyphenyl)acryloyl)glycyl-L-valyl-D-glutamate]
Induction of cytokines IL-1β, IL-6, IL-8 and TNF-α, compound alone (human PBMCs): induced small increases in the levels of all four of these cytokines
Log10 (anti-OVA IgG1/anti-OVA IgG2a) (NIH/OlaHsd mice): 2.28 ± 0.13
Ovalbumin-specific IgG2a response (in words) (NIH/OlaHsd mice; [1]): slight suppression of the IgG2a response
Adjuvant activity: ovalbumin-specific IgG (in words) (NIH/OlaHsd mice; [2]): devoid of adjuvant activity
